Columns and labels:
patients with glaucoma = assay: Loss of IOP lowering upon cessation of chronic topical anti-glaucoma medication (Example A); assay type: in vivo, human; settings: for mean IOP from baseline on day 28: day 28, after four weeks of topical medication; for mean IOP from baseline on day 30: day 30, after 2 days with no medication
From the text: To examine loss or reduction of a therapeutic effect (i.e. IOP lowering) upon cessation of chronic medication administration used to treatment a chronic ocular condition, three different populations of patients with glaucoma were examined.
1. A population of twenty patients with glaucoma was examined.

[1] = system: VEGF165-induced retinal vasculopathy; assay: Remnant effect after intravitreal triamcinolone acetonide, VEGF165-induced retinal vasculopathy (Example 9); assay type: in vivo, Dutch-belted rabbits; settings: 48 hours after VEGF165; 4 mg TA removed after one minute
Procedure: An experiment was carried out which determined existence of a remnant effect (i.e. a therapeutic effect of the active agent when a therapeutic amount of the active agent was not longer present) of intravitreal triamcinolone. Six Dutch-belted rabbits were divided into two groups of three each. After standard pars plana vitrectomy, one group received 4 mg of the glucocorticoid triamcinolone acetonide (TA) in a 0.1 ml volume (Kenalog® 40), and the other group received 0.1 ml of a 5% PLGA (poly lactic/glycolic acid) solution. One minute later the TA or PLGA was removed with a subtotal vitrectomy and soft tip needle. Forty-eight hours after the surgery VEGF165 (500 ng/50 μl) was injected intravitreally via a 29 gauge needle to induce retinal vasculopathy and assess a pharmacological action of any remnant effect of either TA or PLGA. Assessment of retinal color fundus imaging, fluorescein angiography (FA), and fluorometry was made upon VEGF administration and 48 hours following such administration to assess leak from the retina vasculature as a result of VEGF165 administration, and the effect of either TA or PLGA on such leakage.

glaucoma = settings: after stopping topical medication; cited from earlier work
[2] = 0.1% ophthalmic suspension, 1 drop 4 times a day (approximately 200 μg per day); cited from earlier work

## CCNC(=O)CCC/C=C\C[C@@H]1[C@@H](/C=C/[C@@H](O)CCc2ccccc2)[C@H](O)C[C@@H]1O [Lumigan, Bimatoprost]
Patients with glaucoma
  mean IOP from baseline on day 28: −8 mm Hg
  mean IOP from baseline on day 30: −6 mm Hg

## CC1(C)O[C@@H]2C[C@H]3[C@@H]4CCC5=CC(=O)C=C[C@]5(C)[C@@]4(F)[C@@H](O)C[C@]3(C)[C@]2(C(=O)CO)O1 [TA, triamcinolone acetonide]
[1]
  Fluorophotometry area under the curve, change from baseline: 3±65%

## Brc1c(NC2=NCCN2)ccc2nccnc12 [brimonidine]
glaucoma
  washout period (return to baseline IOP) of topical anti-glaucoma medication: two to four and five
Patients with glaucoma; day 14, after 14 days of topical medication
  mean IOP from baseline on day 14: −2 mm Hg
Patients with glaucoma; day 15, after 24 hours with no medication
  mean IOP from baseline on day 15: −0.8 mm Hg

## C[C@@H]1C[C@H]2[C@@H]3CCC4=CC(=O)C=C[C@]4(C)[C@@]3(F)[C@@H](O)C[C@]2(C)[C@@]1(O)C(=O)CO [dexamethasone]
[2]
  share of the topical dose that reaches the anterior segment: about 1%

## CCN[C@H]1C[C@H](C)S(=O)(=O)c2sc(S(N)(=O)=O)cc21 [dorzolamide]
glaucoma
  washout period (return to baseline IOP) of topical anti-glaucoma medication: two to four

## CNC[C@H](O)c1ccc(O)c(O)c1 [epinephrine]
glaucoma
  washout period (return to baseline IOP) of topical anti-glaucoma medication: about three

## CC[C@@H]1C(=O)OC[C@@H]1Cc1cncn1C [pilocarpine]
glaucoma
  washout period (return to baseline IOP) of topical anti-glaucoma medication: about 48 hours

## CC(C)(C)NC[C@H](O)COc1nsnc1N1CCOCC1 [timolol]
Patients with glaucoma
  mean IOP from baseline on day 28: −4 mm Hg
  mean IOP from baseline on day 30: −2 mm Hg

From US9233071B2, “Methods for treating retinopathy with extended therapeutic effect” (Allergan, Inc., priority 2004, dated 2016)
